Blank lines part the entries; values can stand above or below the compound they belong to.
What was measured:
[1] = target: T1, Alpha trans-inducing protein (Human alphaherpesvirus 1) (UniProt A0A5J6DW59); assay: Selectivity interaction (Reporter gene assay) EUB0001150a UL48; set-up: recommended concentration 10 uM
[2] = target: T2, Nuclear receptor subfamily 2 group C member 1 (Homo sapiens) (UniProt P13056); assay: Selectivity interaction (Reporter gene assay) EUB0001150a NR2C1; set-up: recommended concentration 10 uM
T2 sequence (whole entry): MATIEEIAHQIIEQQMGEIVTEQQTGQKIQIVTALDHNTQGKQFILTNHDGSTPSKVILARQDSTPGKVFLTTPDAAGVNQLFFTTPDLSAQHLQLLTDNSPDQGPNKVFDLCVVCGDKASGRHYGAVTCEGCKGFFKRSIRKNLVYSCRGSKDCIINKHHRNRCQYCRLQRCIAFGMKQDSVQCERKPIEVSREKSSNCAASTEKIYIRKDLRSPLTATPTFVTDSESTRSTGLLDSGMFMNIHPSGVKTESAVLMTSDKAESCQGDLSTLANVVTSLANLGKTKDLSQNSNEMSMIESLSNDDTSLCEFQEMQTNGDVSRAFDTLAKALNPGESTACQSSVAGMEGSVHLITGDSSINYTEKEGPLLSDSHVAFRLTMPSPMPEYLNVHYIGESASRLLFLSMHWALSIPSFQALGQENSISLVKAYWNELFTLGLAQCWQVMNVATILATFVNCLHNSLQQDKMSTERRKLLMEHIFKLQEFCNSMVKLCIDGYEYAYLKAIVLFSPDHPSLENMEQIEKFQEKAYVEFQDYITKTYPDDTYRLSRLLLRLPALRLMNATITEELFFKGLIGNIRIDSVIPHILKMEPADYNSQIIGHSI

[3] = target: T3, Retinoic acid receptor RXR-alpha (Homo sapiens) (UniProt P19793); assay: Selectivity interaction (Reporter gene assay) EUB0001150a RXRA; set-up: recommended concentration 10 uM; details: reference bexarotene 1 uM, Selectivity number of off-targets 0.0, Selectivity number of targets 1.0, Source Knowledge inhouse
T3 sequence (whole entry): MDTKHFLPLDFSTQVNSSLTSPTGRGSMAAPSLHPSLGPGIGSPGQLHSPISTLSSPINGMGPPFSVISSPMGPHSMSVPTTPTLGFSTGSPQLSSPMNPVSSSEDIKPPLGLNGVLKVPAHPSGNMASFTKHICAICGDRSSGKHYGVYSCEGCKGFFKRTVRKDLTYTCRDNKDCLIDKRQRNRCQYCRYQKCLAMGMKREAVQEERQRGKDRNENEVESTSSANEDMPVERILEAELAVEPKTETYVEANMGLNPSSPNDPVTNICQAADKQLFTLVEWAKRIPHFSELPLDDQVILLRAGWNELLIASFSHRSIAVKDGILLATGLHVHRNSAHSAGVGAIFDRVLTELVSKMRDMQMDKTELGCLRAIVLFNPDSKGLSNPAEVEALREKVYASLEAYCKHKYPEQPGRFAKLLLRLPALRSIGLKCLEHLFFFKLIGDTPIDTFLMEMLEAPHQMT

[4] = target: Nuclear receptor subfamily 4immunitygroup A member 1 (Homo sapiens) (UniProt P22736); assay: Selectivity interaction (Reporter gene assay) EUB0001150a NR4A1; set-up: recommended concentration 10 uM
[5] = target: Steroidogenic factor 1 (Homo sapiens) (UniProt Q13285); assay: Selectivity interaction (Reporter gene assay) EUB0001150a NR5A1; set-up: recommended concentration 10 uM
[6] = target: T4, Hepatocyte nuclear factor 4-alpha (Homo sapiens) (UniProt P41235); assay: Selectivity interaction (Reporter gene assay) EUB0001150a HNF4A; set-up: recommended concentration 10 uM
T4 sequence (whole entry): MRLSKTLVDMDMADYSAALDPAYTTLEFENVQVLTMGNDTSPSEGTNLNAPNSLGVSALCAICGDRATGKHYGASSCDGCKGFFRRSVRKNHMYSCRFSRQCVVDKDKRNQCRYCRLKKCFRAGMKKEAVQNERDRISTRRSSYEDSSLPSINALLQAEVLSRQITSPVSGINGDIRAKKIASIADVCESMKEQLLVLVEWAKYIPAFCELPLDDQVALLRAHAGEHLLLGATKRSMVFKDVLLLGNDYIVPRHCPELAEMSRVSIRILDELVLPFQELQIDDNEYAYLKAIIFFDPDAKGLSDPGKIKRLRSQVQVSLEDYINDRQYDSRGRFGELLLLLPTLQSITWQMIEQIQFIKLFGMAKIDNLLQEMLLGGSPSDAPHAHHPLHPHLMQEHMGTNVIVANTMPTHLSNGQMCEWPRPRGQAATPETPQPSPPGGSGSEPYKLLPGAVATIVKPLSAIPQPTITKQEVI

[7] = target: Nuclear receptor subfamily 2 group E member 1 (Homo sapiens) (UniProt Q9Y466); assay: Selectivity interaction (Reporter gene assay) EUB0001150a NR2E1; set-up: recommended concentration 10 uM
[8] = target: T1, Alpha trans-inducing protein (Human alphaherpesvirus 1); assay: Selectivity interaction (Reporter gene assay) EUB0001148a UL48; set-up: recommended concentration 1 uM
[9] = target: T3, Retinoic acid receptor RXR-alpha (Homo sapiens); assay: Selectivity interaction (Reporter gene assay) EUB0001148a RXRA; set-up: recommended concentration 1 uM
[10] = target: Nuclear receptor subfamily 4immunitygroup A member 1 (Homo sapiens) (UniProt P22736); assay: Selectivity interaction (Reporter gene assay) EUB0001148a NR4A1; set-up: recommended concentration 1 uM
[11] = target: T4, Hepatocyte nuclear factor 4-alpha (Homo sapiens); assay: Selectivity interaction (Reporter gene assay) EUB0001148a HNF4A; set-up: recommended concentration 1 uM
[12] = target: T2, Nuclear receptor subfamily 2 group C member 1 (Homo sapiens); assay: Selectivity interaction (Reporter gene assay) EUB0001148a NR2C1; set-up: recommended concentration 1 uM
[13] = target: Steroidogenic factor 1 (Homo sapiens) (UniProt Q13285); assay: Selectivity interaction (Reporter gene assay) EUB0001148a NR5A1; set-up: recommended concentration 1 uM
[14] = target: Nuclear receptor subfamily 2 group E member 1 (Homo sapiens) (UniProt Q9Y466); assay: Selectivity interaction (Reporter gene assay) EUB0001148a NR2E1; set-up: recommended concentration 1 uM
[15] = target: Nuclear receptor subfamily 2 group E member 1 (Homo sapiens) (UniProt Q9Y466); assay: Selectivity interaction (Reporter gene assay) EUB0001153a NR2E1; set-up: recommended concentration 10 uM
[16] = target: T1, Alpha trans-inducing protein (Human alphaherpesvirus 1); assay: Selectivity interaction (Reporter gene assay) EUB0001153a UL48; set-up: recommended concentration 10 uM
[17] = target: T2, Nuclear receptor subfamily 2 group C member 1 (Homo sapiens); assay: Selectivity interaction (Reporter gene assay) EUB0001153a NR2C1; set-up: recommended concentration 10 uM
[18] = target: Nuclear receptor subfamily 4immunitygroup A member 1 (Homo sapiens) (UniProt P22736); assay: Selectivity interaction (Reporter gene assay) EUB0001153a NR4A1; set-up: recommended concentration 10 uM; details: screened at recom. conc., Selectivity number of off-targets 1.0, Selectivity number of targets 5.0, Source Knowledge inhouse
[19] = target: Steroidogenic factor 1 (Homo sapiens) (UniProt Q13285); assay: Selectivity interaction (Reporter gene assay) EUB0001153a NR5A1; set-up: recommended concentration 10 uM
[20] = target: T3, Retinoic acid receptor RXR-alpha (Homo sapiens); assay: Selectivity interaction (Reporter gene assay) EUB0001153a RXRA; set-up: recommended concentration 10 uM; details: reference bexarotene 1 uM, Selectivity number of off-targets 0.0, Selectivity number of targets 1.0, Source Knowledge inhouse
[21] = target: T4, Hepatocyte nuclear factor 4-alpha (Homo sapiens); assay: Selectivity interaction (Reporter gene assay) EUB0001153a HNF4A; set-up: recommended concentration 10 uM
[22] = target: Nuclear receptor subfamily 2 group E member 1 (Homo sapiens) (UniProt Q9Y466); assay: Selectivity interaction (Reporter gene assay) EUB0001145aNa NR2E1; set-up: recommended concentration 1 uM
[23] = target: Nuclear receptor subfamily 4immunitygroup A member 1 (Homo sapiens) (UniProt P22736); assay: Selectivity interaction (Reporter gene assay) EUB0001145aNa NR4A1; set-up: recommended concentration 1 uM
[24] = target: T1, Alpha trans-inducing protein (Human alphaherpesvirus 1); assay: Selectivity interaction (Reporter gene assay) EUB0001145aNa UL48; set-up: recommended concentration 1 uM
[25] = target: T2, Nuclear receptor subfamily 2 group C member 1 (Homo sapiens); assay: Selectivity interaction (Reporter gene assay) EUB0001145aNa NR2C1; set-up: recommended concentration 1 uM
[26] = target: Steroidogenic factor 1 (Homo sapiens) (UniProt Q13285); assay: Selectivity interaction (Reporter gene assay) EUB0001145aNa NR5A1; set-up: recommended concentration 1 uM
[27] = target: T3, Retinoic acid receptor RXR-alpha (Homo sapiens); assay: Selectivity interaction (Reporter gene assay) EUB0001145aNa RXRA; set-up: recommended concentration 1 uM; details: reference bexarotene 1 uM, Selectivity number of off-targets 0.0, Selectivity number of targets 1.0, Source Knowledge inhouse
[28] = target: T4, Hepatocyte nuclear factor 4-alpha (Homo sapiens); assay: Selectivity interaction (Reporter gene assay) EUB0001145aNa HNF4A; set-up: recommended concentration 1 uM
[29] = target: T1, Alpha trans-inducing protein (Human alphaherpesvirus 1); assay: Selectivity interaction (Reporter gene assay) EUB0001152a UL48; set-up: recommended concentration 10 uM
[30] = target: Steroidogenic factor 1 (Homo sapiens) (UniProt Q13285); assay: Selectivity interaction (Reporter gene assay) EUB0001152a NR5A1; set-up: recommended concentration 10 uM
[31] = target: T3, Retinoic acid receptor RXR-alpha (Homo sapiens); assay: Selectivity interaction (Reporter gene assay) EUB0001152a RXRA; set-up: recommended concentration 10 uM
[32] = target: Nuclear receptor subfamily 2 group E member 1 (Homo sapiens) (UniProt Q9Y466); assay: Selectivity interaction (Reporter gene assay) EUB0001152a NR2E1; set-up: recommended concentration 10 uM
[33] = target: T2, Nuclear receptor subfamily 2 group C member 1 (Homo sapiens); assay: Selectivity interaction (Reporter gene assay) EUB0001152a NR2C1; set-up: recommended concentration 10 uM; details: screened at recom. conc., Selectivity number of off-targets 1.0, Selectivity number of targets 5.0, Source Knowledge inhouse
[34] = target: Nuclear receptor subfamily 4immunitygroup A member 1 (Homo sapiens) (UniProt P22736); assay: Selectivity interaction (Reporter gene assay) EUB0001152a NR4A1; set-up: recommended concentration 10 uM
[35] = target: T4, Hepatocyte nuclear factor 4-alpha (Homo sapiens); assay: Selectivity interaction (Reporter gene assay) EUB0001152a HNF4A; set-up: recommended concentration 10 uM

Steroidogenic factor 1 (Homo sapiens), sequence (Q13285 whole entry): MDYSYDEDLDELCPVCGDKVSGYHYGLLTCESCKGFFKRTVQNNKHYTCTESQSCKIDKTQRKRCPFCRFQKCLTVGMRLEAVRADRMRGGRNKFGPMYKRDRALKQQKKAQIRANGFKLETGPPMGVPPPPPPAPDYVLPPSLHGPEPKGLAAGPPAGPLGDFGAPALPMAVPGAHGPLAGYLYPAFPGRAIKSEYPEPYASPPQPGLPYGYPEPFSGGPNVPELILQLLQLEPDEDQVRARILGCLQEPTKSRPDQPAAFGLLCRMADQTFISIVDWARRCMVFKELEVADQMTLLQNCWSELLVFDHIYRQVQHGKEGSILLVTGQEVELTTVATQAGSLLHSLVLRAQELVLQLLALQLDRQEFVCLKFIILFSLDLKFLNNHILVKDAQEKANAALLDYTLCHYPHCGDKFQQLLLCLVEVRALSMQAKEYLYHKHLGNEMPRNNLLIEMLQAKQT
Nuclear receptor subfamily 2 group E member 1 (Homo sapiens), sequence (Q9Y466 whole entry): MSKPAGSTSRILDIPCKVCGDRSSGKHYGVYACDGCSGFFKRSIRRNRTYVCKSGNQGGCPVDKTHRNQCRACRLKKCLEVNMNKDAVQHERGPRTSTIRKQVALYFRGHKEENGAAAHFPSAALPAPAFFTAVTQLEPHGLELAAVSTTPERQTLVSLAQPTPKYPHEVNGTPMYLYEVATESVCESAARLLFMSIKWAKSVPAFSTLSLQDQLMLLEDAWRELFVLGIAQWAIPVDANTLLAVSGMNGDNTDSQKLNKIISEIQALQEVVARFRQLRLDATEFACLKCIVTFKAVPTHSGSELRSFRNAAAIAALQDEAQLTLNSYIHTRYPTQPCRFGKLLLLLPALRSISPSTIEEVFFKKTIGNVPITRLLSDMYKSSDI
T1 sequence (A0A5J6DW59 as listed by the source): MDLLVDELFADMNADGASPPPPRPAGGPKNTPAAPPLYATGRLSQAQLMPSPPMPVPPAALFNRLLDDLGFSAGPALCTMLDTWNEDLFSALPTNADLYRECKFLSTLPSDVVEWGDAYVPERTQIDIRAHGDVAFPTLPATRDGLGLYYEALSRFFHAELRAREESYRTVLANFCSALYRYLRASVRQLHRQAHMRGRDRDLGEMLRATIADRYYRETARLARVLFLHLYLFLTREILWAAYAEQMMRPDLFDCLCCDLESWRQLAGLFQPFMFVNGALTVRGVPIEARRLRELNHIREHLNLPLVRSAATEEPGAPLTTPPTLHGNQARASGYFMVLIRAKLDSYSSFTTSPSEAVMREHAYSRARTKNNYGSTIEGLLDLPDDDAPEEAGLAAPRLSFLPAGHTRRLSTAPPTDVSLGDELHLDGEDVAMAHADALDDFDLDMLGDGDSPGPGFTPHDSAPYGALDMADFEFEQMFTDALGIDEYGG
Nuclear receptor subfamily 4immunitygroup A member 1 (Homo sapiens), sequence (P22736 whole entry): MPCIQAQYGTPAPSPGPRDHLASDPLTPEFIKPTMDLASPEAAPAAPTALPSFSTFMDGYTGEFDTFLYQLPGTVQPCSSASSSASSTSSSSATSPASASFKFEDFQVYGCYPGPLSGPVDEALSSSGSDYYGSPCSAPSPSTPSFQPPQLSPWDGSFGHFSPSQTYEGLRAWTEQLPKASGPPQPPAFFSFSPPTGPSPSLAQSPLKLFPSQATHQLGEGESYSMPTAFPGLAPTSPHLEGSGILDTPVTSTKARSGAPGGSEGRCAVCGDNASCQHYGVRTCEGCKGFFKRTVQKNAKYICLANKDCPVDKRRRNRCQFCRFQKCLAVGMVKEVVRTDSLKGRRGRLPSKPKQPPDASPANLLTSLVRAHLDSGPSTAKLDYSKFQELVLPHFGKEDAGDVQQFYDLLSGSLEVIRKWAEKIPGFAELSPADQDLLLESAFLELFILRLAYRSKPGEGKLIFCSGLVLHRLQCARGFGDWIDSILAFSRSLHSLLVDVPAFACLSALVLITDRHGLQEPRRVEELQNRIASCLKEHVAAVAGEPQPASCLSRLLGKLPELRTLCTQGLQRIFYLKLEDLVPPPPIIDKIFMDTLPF

Compound: COC(=O)c1sccc1S(=O)(=O)Nc1ccc(Nc2ccccc2)cc1OC
P-value [1]: 0.0012
Remaining activity [2]: 0.679
Relative activation [3]: 0.476%
Remaining activity [4]: 0.906
Remaining activity [5]: 0.63
Remaining activity [6]: 0.51
Remaining activity [7]: 0.608

Compound: Cc1cc(SCc2sc(-c3ccc(C(F)(F)F)cc3)nc2C)ccc1OCC(=O)O
P-value [8]: 0.0001
Relative activation [9]: 0.766%
Fold activation [10]: 1.02
Fold activation [11]: 1.1
Fold activation [12]: 1.24
Fold activation [13]: 1.05
Fold activation [14]: 1.05

The next lines start with the values.

Fold activation [15]: 1.33
P-value [16]: 0.0358
Fold activation [17]: 1.13
Fold activation [18]: 2.05
Fold activation [19]: 1.11
Relative activation [20]: 0.245%
Remaining activity [21]: 0.77
Compound: CCOC(=O)C1Cc2ccccc2CN1C(=O)c1ccc(SC)s1 (stereo not given)

Fold activation [22]: 1.14
Fold activation [23]: 1.09
P-value [24]: 0.0052
Fold activation [25]: 1.29
Fold activation [26]: 1.13
Relative activation [27]: 0.702%
Fold activation [28]: 1.17
Compound: CCO[C@H](COc1ccc(C(F)(F)F)cc1)CSc1ccc(OCC(=O)O)c(C)c1

P-value [29]: 0.0179
Remaining activity [30]: 0.905
Relative activation [31]: 0.237%
Remaining activity [32]: 0.62
Remaining activity [33]: 0.46
Fold activation [34]: 1.3
Remaining activity [35]: 0.579
Compound: CCOC(=O)N1CCC(CN(Cc2ccc(Cl)cc2)Cc2ccc([N+](=O)[O-])s2)C1 (stereo not given)

From ChEMBL document CHEMBL5715260, “Selectivity Literature for EUbOPEN Chemogenomic Library” (2024)
